Data on 13 compounds can be found in patent US20240294551A1 (AMGEN INC., priority 2022, published 2024).

Assay [1] concerns the target GDP-bound KRAS protein (aa 1-169), containing both G12D and C118A amino acid substitutions (Homo sapiens (Human), UniProt P01116, C118A/G12D). The experiment in a line: KRAS G12D Coupled Nucleotide Exchange Assay. The format is biochemical. Particulars: read-out: KRAS G12D Coupled Exchange IC50.
Assay [2] relates to Phosphorylation of ERK1/2 in AsPC-1 cells. As to the kind of experiment: Phospho-ERK1/2 MSD Assay. The format is cell-based, human. Particulars: Homo sapiens, ASPC1, 2 h, read-out: 2 h p-ERK (AsPC-1 cells), IC50. The procedure: AsPC-1 (ATCC® CRL-1682™) cells were cultured in RPMI 1640 Medium (ThermoFisher Scientific 11875093) containing 10% fetal bovine serum (ThermoFisher Scientific 16000044) and 1× penicillin-streptomycin-glutamine (ThermoFisher Scientific 10378016). Sixteen hours prior to compound treatment, AsPC-1 cells were seeded in 96-well cell culture plates at a density of 25,000 cells/well and incubated at 37° C., 5% CO2. A compound dose-response titration was diluted in growth media, added to appropriate wells of a cell culture plate, and then incubated at 37° C., 5% CO2 for 2 hours. Following compound treatment, cells were washed with ice-cold Dulbecco's phosphate-buffered saline, no Ca^2+ or Mg^2+ (ThermoFisher Scientific 14190144), and then lysed in RIPA buffer (50 mM Tris-HCl pH 7.5, 1% Igepal, 0.5% sodium deoxycholate, 150 mM NaCl, and 0.5% sodium dodecyl sulfate) containing protease inhibitors (Roche 4693132001) and phosphatase inhibitors (Roche 4906837001). Phosphorylation of ERK1/2 in compound-treated lysates was assayed using Phospho-ERK1/2 Whole Cell Lysate kits (Meso Scale Discovery K151DWD) according to the manufacturer's protocol. Assay plates were read on a Meso Scale Discovery Sector Imager 6000, and data were analyzed using a 4-parameter logistic model to calculate IC50 values.

Assay [3] has as its target His-tagged KRAS G12D protein (Homo sapiens (Human), UniProt P01116, G12D). The experiment in a line: KRAS G12D TR-FRET Assay. The format is binding. The following applies: read-out: KRAS G12D Binding IC50. The gist of the method: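 His-tagged KRAS G12D (diluted to 20 nM in pH 7.4 HEPES buffer with 10 mM MgCl2 and 10 μM GDP) was preincubated with titrated compound for 30 min at room temperature. Biotinylated KRPep-2d peptide (diluted to 20 nM) was then added for 1 h, and displacement was monitored by TR-FRET.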

Chain of GDP-bound KRAS protein (aa 1-169), containing both G12D and C118A amino acid substitutions (P01116 other isoform, or with tags, fused parts or gaps G12D/C118A): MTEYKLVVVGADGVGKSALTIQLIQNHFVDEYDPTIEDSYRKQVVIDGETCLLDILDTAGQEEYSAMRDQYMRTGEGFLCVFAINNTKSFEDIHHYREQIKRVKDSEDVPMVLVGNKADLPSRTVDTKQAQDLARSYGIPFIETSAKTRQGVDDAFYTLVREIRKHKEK
Chain of His-tagged KRAS G12D protein (P01116 other isoform, or with tags, fused parts or gaps G12D): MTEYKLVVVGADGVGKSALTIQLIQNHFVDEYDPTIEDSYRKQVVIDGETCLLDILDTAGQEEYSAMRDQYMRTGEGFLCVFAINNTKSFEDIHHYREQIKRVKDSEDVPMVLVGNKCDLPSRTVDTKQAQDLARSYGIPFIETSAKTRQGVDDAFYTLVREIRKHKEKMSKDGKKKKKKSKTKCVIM

Consider `O=C1CCCOc2ccc3[nH]ncc3c2-c2ncc3c(nc(OC[C@@]45CCCN4C[C@H](F)C5)nc3c2F)N2CCC[C@H](C2)O1` [Example 30, (17R)-30-Fluoro-24-(((2R,7aS)-2-fluorotetrahydro-1H-pyrrolo[1,2-a]pyrrol-7a(5H)-yl)methoxy)-11,16-dioxa-5,6,21,23,25,29-hexaazahexacyclo[24.3.1.1˜17,21˜.0˜2,10˜.0˜3,7˜.0˜22,27˜]hentriaconta-1(30),2,4,7,9,22,24,26,28-nonaen-15-one], for which the 50% inhibitory concentration (IC50) in assay [1] is 0.141 µM; in assay [2], 1.46 µM; in assay [3] it was 0.119 µM.
For the compound `O=C1COCCCc2c(Cl)cc3[nH]ncc3c2-c2ncc3c(nc(OC[C@@]45CCCN4C[C@H](F)C5)nc3c2F)N2CCC[C@H](C2)O1` [Example 37, (18R)-9-Chloro-31-fluoro-25-(((2R,7aS)-2-fluorotetrahydro-1H-pyrrolo[1,2-a]pyrrol-7a(5H)-yl)methoxy)-14,17-dioxa-5,6,22,24,26,30-hexaazahexacyclo[25.3.1.1˜18,22˜.0˜2,10˜.0˜3,7˜.0˜23,28˜]dotriaconta-1(31),2,4,7,9,23,25,27,29-nonaen-16-one bis(2,2,2-trifluoroacetate)], the IC50 in assay [1] is 0.004 µM; in assay [2], 0.058 µM; in assay [3], 0.005 µM.
As for `Cc1cc2[nH]ncc2c2c1CCCCC(=O)N[C@@H]1CCCN(C1)c1nc(OC[C@@]34CCCN3C[C@H](F)C4)nc3c(F)c-2ncc13.O=C(O)C(F)(F)F` [Example 48, (17R)-30-fluoro-24-(((2R,7aS)-2-fluorotetrahydro-1H-pyrrolo[1,2-a]pyrrol-7a(5H)-yl)methoxy)-9-methyl-5,6,16,21,23,25,29-heptaazahexacyclo[24.3.1.1˜17,21˜.0˜2,10˜.0˜3,7˜.0˜22,27˜]hentriaconta-1(30),2,4,7,9,22,24,26,28-nonaen-15-one 2,2,2-trifluoroacetate], the IC50 in assay [1] was found to be 0.013 µM; in assay [2], 0.931 µM; in assay [3], 0.014 µM.
Take `Cc1cc2[nH]ncc2c2c1CCCCC(=O)N(C)[C@@H]1CCCN(C1)c1nc(OC[C@@]34CCCN3C[C@H](F)C4)nc3c(F)c-2ncc13` [Example 50, (17R)-30-fluoro-24-(((2R,7aS)-2-fluorotetrahydro-1H-pyrrolo[1,2-a]pyrrol-7a(5H)-yl)methoxy)-9,16-dimethyl-5,6,16,21,23,25,29-heptaazahexacyclo[24.3.1.1~17,21~.0~2,10~.0~3,7~.0~22,27~]hentriaconta-1(30),2,4,7,9,22,24,26,28-nonaen-15-one]: the values for the IC50 in assay [1], in assay [2] and in assay [3] were 0.004 µM, 0.169 µM and 0.007 µM, respectively.
Turning to `Cc1cc2[nH]ncc2c2c1CCC[C@H](F)C(=O)N(C)[C@@H]1CCCN(C1)c1nc(OC[C@@]34CCCN3C[C@H](F)C4)nc3c(F)c-2ncc13` [Example 51, (14S,17R)-14,30-difluoro-24-(((2R,7aS)-2-fluorotetrahydro-1H-pyrrolo[1,2-a]pyrrol-7a(5H)-yl)methoxy)-9,16-dimethyl-5,6,16,21,23,25,29-heptaazahexacyclo[24.3.1.1~17,21~.0~2,10~.0~3,7~.0~22,27~]hentriaconta-1(30),2,4,7,9,22,24,26,28-nonaen-15-one], the IC50 in assay [1] was 0.005 µM; in assay [2], 0.356 µM; in assay [3], 0.01 µM.
In the case of `Cc1cc2[nH]ncc2c2c1CCC[C@@H](F)C(=O)N(C)[C@@H]1CCCN(C1)c1nc(OC[C@@]34CCCN3C[C@H](F)C4)nc3c(F)c-2ncc13` [Example 52, (14R,17R)-14,30-difluoro-24-(((2R,7aS)-2-fluorotetrahydro-1H-pyrrolo[1,2-a]pyrrol-7a(5H)-yl)methoxy)-9,16-dimethyl-5,6,16,21,23,25,29-heptaazahexacyclo[24.3.1.1~17,21~.0~2,10~.0~3,7~.0~22,27~]hentriaconta-1(30),2,4,7,9,22,24,26,28-nonaen-15-one], the IC50 stood at 0.012 µM in assay [1], 0.403 µM in assay [2] and 0.019 µM in assay [3].
`Cc1cc2[nH]ncc2c2c1CCCCC(=O)N1CC3(CCCN(C3)c3nc(OC[C@@]45CCCN4C[C@H](F)C5)nc4c(F)c-2ncc34)C1` [Example 56, 32-fluoro-24-(((2R,7aS)-2-fluorotetrahydro-1H-pyrrolo[1,2-a]pyrrol-7a(5H)-yl)methoxy)-10-methyl-3,13,14,19,23,25,27-heptaazaheptacyclo[25.3.1.1~1,3~.1~18,22~.0~9,17~.0~12,16~.0~21,26~]tritriaconta-9,11,14,16,18(32),19,21,23,25-nonaen-4-one]: the IC50 in assay [1] amounted to 0.011 µM; in assay [2], 2.32 µM; in assay [3], 0.02 µM.
As to `O=C1CCCCc2c(Cl)cc3[nH]ncc3c2-c2ncc3c(nc(OC[C@@]45CCCN4C[C@H](F)C5)nc3c2F)N2CC[C@@H]3CCN1[C@@H]3C2` [Example 61, (28R,32S)-18-chloro-33-fluoro-4-(((2R,7aS)-2-fluorotetrahydro-1H-pyrrolo[1,2-a]pyrrol-7a(5H)-yl)methoxy)-1,3,5,9,14,15,25-heptaazaheptacyclo[23.5.2.1~6,10~.0~2,7~.0~11,19~.0~12,16~.0~28,32~]tritriaconta-2,4,6,8,10(33),11,13,16,18-nonaen-24-one], the IC50 in assay [1] is 0.034 µM; in assay [2] it was 0.07 µM; in assay [3], 0.079 µM.
Consider `Cc1cc2[nH]ncc2c2c1CCCCC(=O)N[C@@H]1COCCN(C1)c1nc(OC[C@@]34CCCN3C[C@H](F)C4)nc3c(F)c-2ncc13` [Example 66, (26S)-32-fluoro-4-(((2R,7aS)-2-fluorotetrahydro-1H-pyrrolo[1,2-a]pyrrol-7a(5H)-yl)methoxy)-18-methyl-28-oxa-1,3,5,9,14,15,25-heptaazahexacyclo [24.4.1.1~6,10~.0~2,7~.0~11,19~.0~12,16~]dotriaconta-2,4,6,8,10(32),11,13,16,18-nonaen-24-one], for which the IC50 in assay [1] amounted to 0.026 µM; in assay [2] it was 4.7 µM; in assay [3], 0.034 µM.
With `O=C1CCCc2c(F)ccc3cccc(c23)-c2ncc3c(nc(OC[C@@]45CCCN4C[C@H](F)C5)nc3c2F)N2CCC[C@H](C2)N1` [Example 68, (15R)-22,31-Difluoro-8-(((2R,7aS)-2-fluorotetrahydro-1H-pyrrolo[1,2-a]pyrrol-7a(5H)-yl)methoxy)-3,7,9,11,16-pentaazahexacyclo[19.7.1.1˜2,6˜.1˜11,15˜.0˜5,10˜.0˜25,29˜]hentriaconta-1(28),2(31),3,5,7,9,21,23,25(29),26-decaen-17-one 2,2,2-trifluoroacetate], the IC50 was 0.016 µM in assay [1], 0.931 µM in assay [2] and 0.033 µM in assay [3].
Taken in the same sequence, the figures for `O=C1CCCc2c(F)ccc3cccc(c23)-c2ncc3c(nc(OC[C@@]45CCCN4C[C@H](F)C5)nc3c2F)N2CCCC[C@H](C2)N1` [Example 69, (16R)-23,32-difluoro-8-(((2R,7aS)-2-fluorotetrahydro-1H-pyrrolo[1,2-a]pyrrol-7a(5H)-yl)methoxy)-3,7,9,11,17-pentaazahexacyclo[20.7.1.1~2,6~.1~11,16~.0~5,10~.0~26,30~]dotriaconta-1(29),2(32),3,5,7,9,22,24,26(30),27-decaen-18-one] were 0.02 µM, 1.14 µM and 0.03 µM.
Taken in the same sequence, the figures for `CN1C(=O)CCCCc2c(Cl)cc3[nH]ncc3c2-c2cc3nc(OC[C@@]45CCCN4C[C@H](F)C5)nc(c3nn2)N2CCC[C@@H]1C2` [Example 73, (17R)-9-Chloro-24-(((2R,7aS)-2-fluorotetrahydro-1H-pyrrolo[1,2-a]pyrrol-7a(5H)-yl)methoxy)-16-methyl-5,6,16,21,23,25,28,29-octaazahexacyclo[24.3.1.1˜17,21˜.0˜2,10˜.0˜3,7˜.0˜22,27˜]hentriaconta-1(30),2,4,7,9,22,24,26,28-nonaen-15-one] were 0.02 µM, 2.07 µM and 0.029 µM.
Take `CN1C(=O)OCCCc2c(Cl)cc3[nH]ncc3c2-c2ncc3c(nc(OC[C@@]45CCCN4C[C@H](F)C5)nc3c2F)N2CCC[C@@H]1C2` [Example 74, (17R)-9-Chloro-30-fluoro-24-(((2R,7aS)-2-fluorotetrahydro-1H-pyrrolo[1,2-a]pyrrol-7a(5H)-yl)methoxy)-16-methyl-14-oxa-5,6,16,21,23,25,29-heptaazahexacyclo[24.3.1.1˜17,21˜.0˜2,10˜.0˜3,7˜.0˜22,27˜]hentriaconta-1(30),2,4,7,9,22,24,26,28-nonaen-15-one]: the IC50 in assay [1] was 0.002 µM; in assay [2], 0.016 µM; in assay [3], 0.003 µM.
